# Laboratory results: patent US20250368649A1, “TETRAHYDROPYRIDOPYRIMIDINE PAN-KRAS INHIBITORS” (Mirati Therapeutics, Inc., priority 2022, published 2025)
# How the values were obtained:
# [1] = biological target: KRas G12A (Homo sapiens, UniProt P01116, G12A); type: binding; details: single point, 10 nM compound, read-out: Binding to KRas (% inhibition at 10 nM) G12A
# [2] = test system: PSN1 cells; assay: Inhibition of KRas-mediated phosphorylation of ERK (Cisbio HTRF pERK), PSN1 cells; type: cell-based; details: Homo sapiens, PSN1, 3 h, 3 hour compound incubation, Cisbio pERK HTRF
# Method in brief: (§1)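 Cells were seeded on day 1 at 6,000 per well in RPMI containing 10% FBS before compound treatment and phospho-ERK detection.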
# [3] = test system: MKN1 cells; assay: Inhibition of KRas-mediated phosphorylation of ERK (Cisbio HTRF pERK), MKN1 cells; type: cell-based; details: Homo sapiens, MKN-1, 3 hour compound incubation, Cisbio pERK HTRF
# Method in brief: as §1
# [4] = biological target: KRas G13D (Homo sapiens, UniProt P01116, G13D); type: binding; details: single point, 10 nM compound, read-out: Binding to KRas (% inhibition at 10 nM) G13D
# [5] = test system: H358 cells; assay: Inhibition of KRas-mediated phosphorylation of ERK (Cisbio HTRF pERK), H358 cells; type: cell-based; details: Homo sapiens; for inhibition at 0.1 µM: NCI-H358, single point at 100 nM, 3 hrs compound incubation; for IC50: NCI-H358, 3 h, 3 hr compound incubation, Cisbio pERK HTRF
# [6] = test system: HCT116 cells; assay: Inhibition of KRas-mediated phosphorylation of ERK (Cisbio HTRF pERK), HCT116 cells; type: cell-based; details: Homo sapiens; for inhibition at 0.1 µM: HCT-116, single point at 100 nM, 3 hrs compound incubation; for IC50: HCT-116, 3 h, 3 hr compound incubation, Cisbio pERK HTRF
# [7] = biological target: KRas G12S (Homo sapiens, UniProt P01116, G12S); type: binding; details: single point, 10 nM compound, read-out: Binding to KRas (% inhibition at 10 nM) G12S
# [8] = test system: ASPC1 cells; assay: Inhibition of KRas-mediated phosphorylation of ERK (Cisbio HTRF pERK), ASPC1 cells; type: cell-based; details: Homo sapiens, AsPC-1 cells; for IC50: ASPC1, 3 h, 3 hr compound incubation, Cisbio pERK HTRF; for inhibition at 0.1 µM: ASPC1, single point at 100 nM, 3 hrs compound incubation
# [9] = biological target: KRas Q61H (Homo sapiens, UniProt P01116, Q61H); assay: KRas binding assay (TR-FRET displacement), KRas Q61H; details: single point, 10 nM compound
# [10] = biological target: KRas G12V (Homo sapiens, UniProt P01116, G12V); assay: biochemical; details: Binding to KRas (IC50 nM) G12V, TR-FRET displacement, KRas G12V
# [11] = biological target: KRas G12R (Homo sapiens, UniProt P01116, G12R); assay: biochemical; details: Binding to KRas (IC50 nM) G12R, TR-FRET displacement, KRas G12R
# [12] = test system: H727 cells; assay: Inhibition of KRas-mediated phosphorylation of ERK (Cisbio HTRF pERK), H727 cells; type: cell-based; details: Homo sapiens; for IC50: NCI-H727, 3 h, 3 hr compound incubation, Cisbio pERK HTRF; for inhibition at 0.1 µM: NCI-H727, single point at 100 nM, 3 hrs compound incubation
# [13] = biological target: KRas G12D (Homo sapiens, UniProt P01116, G12D); assay: biochemical; details: Binding to KRas (IC50 nM) G12D, TR-FRET displacement, KRas G12D
# [14] = test system: H460 cells; assay: Inhibition of KRas-mediated phosphorylation of ERK (Cisbio HTRF pERK), H460 cells; type: cell-based; details: Homo sapiens; for inhibition at 0.1 µM: NCI-H460, single point at 100 nM, 3 hrs compound incubation; for IC50: NCI-H460, 3 h, 3 hr compound incubation, Cisbio pERK HTRF
# [15] = biological target: KRas G12C (Homo sapiens, UniProt P01116, G12C); type: binding; details: single point, 10 nM compound, read-out: Binding to KRas (% inhibition at 10 nM) G12C
# [16] = test system: A549 cells; assay: Inhibition of KRas-mediated phosphorylation of ERK (Cisbio HTRF pERK), A549 cells; type: cell-based; details: Homo sapiens; for inhibition at 0.1 µM: single point at 100 nM, 3 hrs compound incubation; for IC50: A549, 3 h, 3 hr compound incubation, Cisbio pERK HTRF
# [17] = biological target: KRas WT (Homo sapiens, UniProt P01116); assay: KRas binding assay (TR-FRET displacement), KRas WT; details: single point, 10 nM compound
# Sequence of KRas WT (P01116 1-169 isoform P01116-2): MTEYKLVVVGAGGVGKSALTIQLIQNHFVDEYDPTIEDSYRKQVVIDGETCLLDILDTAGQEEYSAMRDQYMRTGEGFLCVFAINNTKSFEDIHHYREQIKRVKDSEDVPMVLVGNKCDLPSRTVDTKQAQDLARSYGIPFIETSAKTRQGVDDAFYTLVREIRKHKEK
# Sequence of KRas G12V (P01116 1-169 isoform P01116-2 G12V): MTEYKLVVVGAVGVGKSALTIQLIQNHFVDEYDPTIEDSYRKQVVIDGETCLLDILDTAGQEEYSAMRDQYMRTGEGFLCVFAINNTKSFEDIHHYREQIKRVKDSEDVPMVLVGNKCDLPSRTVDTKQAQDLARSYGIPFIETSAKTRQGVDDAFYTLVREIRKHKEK
# Sequence of KRas G12R (P01116 1-169 isoform P01116-2 G12R): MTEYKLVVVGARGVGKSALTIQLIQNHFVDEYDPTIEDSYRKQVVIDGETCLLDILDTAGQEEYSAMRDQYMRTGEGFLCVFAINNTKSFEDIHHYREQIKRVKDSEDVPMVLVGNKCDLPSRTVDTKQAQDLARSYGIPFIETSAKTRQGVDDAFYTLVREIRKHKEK
# Sequence of KRas G12D (P01116 1-169 isoform P01116-2 G12D): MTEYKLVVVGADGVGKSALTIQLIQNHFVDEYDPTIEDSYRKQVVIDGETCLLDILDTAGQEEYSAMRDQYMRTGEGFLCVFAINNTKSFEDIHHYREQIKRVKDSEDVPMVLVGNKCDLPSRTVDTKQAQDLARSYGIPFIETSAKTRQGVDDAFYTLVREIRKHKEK
# Sequence of KRas G13D (P01116 1-169 isoform P01116-2 G13D): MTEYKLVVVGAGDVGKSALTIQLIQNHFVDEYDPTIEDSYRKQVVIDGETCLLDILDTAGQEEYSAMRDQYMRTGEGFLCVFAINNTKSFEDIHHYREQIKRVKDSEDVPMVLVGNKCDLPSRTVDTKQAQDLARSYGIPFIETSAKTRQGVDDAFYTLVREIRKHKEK
# Sequence of KRas G12C (P01116 1-169 isoform P01116-2 G12C): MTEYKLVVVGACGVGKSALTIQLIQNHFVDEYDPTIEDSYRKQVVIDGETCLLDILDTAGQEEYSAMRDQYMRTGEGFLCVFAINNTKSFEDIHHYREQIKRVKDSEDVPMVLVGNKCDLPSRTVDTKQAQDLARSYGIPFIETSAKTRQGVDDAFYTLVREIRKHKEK
# Sequence of KRas Q61H (P01116 1-169 isoform P01116-2 Q61H): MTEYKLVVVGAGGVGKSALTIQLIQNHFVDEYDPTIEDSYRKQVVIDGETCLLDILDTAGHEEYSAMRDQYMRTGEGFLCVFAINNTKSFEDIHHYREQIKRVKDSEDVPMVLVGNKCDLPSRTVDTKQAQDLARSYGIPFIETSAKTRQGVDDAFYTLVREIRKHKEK
# Sequence of KRas G12S (P01116 1-169 isoform P01116-2 G12S): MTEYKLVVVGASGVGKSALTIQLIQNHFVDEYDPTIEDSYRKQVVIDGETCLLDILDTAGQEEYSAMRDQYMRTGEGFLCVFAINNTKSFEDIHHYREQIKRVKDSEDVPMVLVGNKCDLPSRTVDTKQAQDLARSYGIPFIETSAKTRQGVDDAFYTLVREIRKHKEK
# Sequence of KRas G12A (P01116 1-169 isoform P01116-2 G12A): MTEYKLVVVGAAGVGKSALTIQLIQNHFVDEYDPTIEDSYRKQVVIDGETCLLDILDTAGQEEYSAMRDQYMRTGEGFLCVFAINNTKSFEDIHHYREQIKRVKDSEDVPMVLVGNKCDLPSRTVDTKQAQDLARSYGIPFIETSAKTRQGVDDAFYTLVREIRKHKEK
SMILES,inhibition at 0.01 µM [1] [%],IC50 [2] [nM],IC50 [3] [nM],inhibition at 0.01 µM [4] [%],inhibition at 0.01 µM [7] [%],IC50 [8] [nM],inhibition at 0.01 µM [9] [%],IC50 [10] [nM],IC50 [11] [nM],IC50 [12] [nM],IC50 [13] [nM],inhibition at 0.01 µM [15] [%],inhibition at 0.01 µM [17] [%],IC50 [5] [nM],IC50 [6] [nM],IC50 [14] [nM],inhibition at 0.1 µM [5] [%],inhibition at 0.1 µM [6] [%],inhibition at 0.1 µM [14] [%],inhibition at 0.1 µM [16] [%],also measured
"CCc1c(F)ccc2cc(O)cc(N3CCc4c(nc(OC[C@@]56CCCN5C[C@H](F)C6)nc4N4CCCn5nc(C(=O)N(C)C)c(C(C)C)c5C4)C3)c12 [Example 295, 5-(7-(8-ethyl-7-fluoro-3-hydroxynaphthalen-1-yl)-2-(((2R,7aS)-2-fluorohexahydro-1H-pyrrolizin-7a-yl)methoxy)-5,6,7,8-tetrahydropyrido[3,4-d]pyrimidin-4-yl)-3-isopropyl-N,N-dimethyl-5,6,7,8-tetrahydro-4H-pyrazolo[1,5-a][1,4]diazepine-2-carboxamide]",99,> 10000,3.5,98,99,20,98,< 2,< 2,23,< 2,99,99,–,–,–,97,63,84,60,–
"CCc1c(F)ccc2cc(O)cc(N3CCc4c(nc(OC[C@@]56CCCN5C[C@H](F)C6)nc4N4CCCn5nc(C(=O)N6C[C@@H](C)N[C@@H](C)C6)cc5C4)C3)c12 [Example 303, ((3 S,5R)-3,5-dimethylpiperazin-1-yl)(5-(7-(8-ethyl-7-fluoro-3-hydroxynaphthalen-1-yl)-2-(((2R,7aS)-2-fluorohexahydro-wH-pyrrolizin-7a-yl)methoxy)-5,6,7,8-tetrahydropyrido[3,4-d]pyrimidin-4-yl)-5,6,7,8-tetrahydro-4H-pyrazolo[1,5-a][1,4]diazepin-2-yl)methanone]",98,6700,22.5,98,99,2,98,< 2,< 2,36,< 2,100,97,8,164,73,98,3,34,62,IC50 [16]: 35 nM
"CCc1c(F)ccc2cc(O)cc(N3CCc4c(nc(OC[C@@]56CCCN5C[C@H](F)C6)nc4N4CCCn5nc(C(=O)N6CC7COCC6C7)cc5C4)C3)c12 (stereo partly drawn) [Example 306, 3-oxa-6-azabicyclo[3.2.1]octan-6-yl(5-(7-(8-ethyl-7-fluoro-3-hydroxynaphthalen-1-yl)-2-(((2R,7aS)-2-fluorohexahydro-1H-pyrrolizin-7a-yl)methoxy)-5,6,7,8-tetrahydropyrido[3,4-d]pyrimidin-4-yl)-5,6,7,8-tetrahydro-4H-pyrazolo[1,5-a][1,4]diazepin-2-yl)methanone]",96,2040,7,97,99,3,96,< 2,< 2,5,< 2,99,95,1,58,23,100,51,81,77,inhibition at 0.1 µM [8]: 99%; inhibition at 0.1 µM [12]: 80%; IC50 [16]: 16 nM

# Second part, led by results:
inhibition at 0.01 µM [1] [%],IC50 [2] [nM],IC50 [3] [nM],inhibition at 0.01 µM [4] [%],inhibition at 0.01 µM [7] [%],IC50 [8] [nM],inhibition at 0.01 µM [9] [%],IC50 [10] [nM],IC50 [11] [nM],IC50 [12] [nM],IC50 [13] [nM],inhibition at 0.01 µM [15] [%],inhibition at 0.01 µM [17] [%],IC50 [5] [nM],IC50 [6] [nM],IC50 [14] [nM],SMILES,inhibition at 0.1 µM [5] [%],inhibition at 0.1 µM [6] [%],inhibition at 0.1 µM [14] [%],inhibition at 0.1 µM [16] [%],also measured
94,6580,8.9,93,98,4,93,< 2,< 2,20,< 2,98,93,5,118,38,"CCc1c(F)ccc2cc(O)cc(N3CCc4c(nc(OC[C@@]56CCCN5C[C@H](F)C6)nc4N4CCCn5nc(N)c(Br)c5C4)C3)c12 [Example 296, 4-(4-(2-amino-3-bromo-7,8-dihydro-4H-pyrazolo[1,5-a][1,4]diazepin-5(6H)-yl)-2-(((2R,7aS)-2-fluorohexahydro-1H-pyrrolizin-7a-yl)methoxy)-5,6-dihydropyrido[3,4-d]pyrimidin-7(8H)-yl)-5-ethyl-6-fluoronaphthalen-2-ol]",98,51,78,86,inhibition at 0.1 µM [8]: 94%; inhibition at 0.1 µM [12]: 67%; IC50 [16]: 12 nM
89,655,12.9,91,97,12,94,< 2,< 2,6,< 2,99,89,–,–,–,"CCNC(=O)c1cc2n(n1)CCCCN(c1nc(OC[C@@]34CCCN3C[C@H](F)C4)nc3c1CCN(c1cc(O)cc4ccc(F)c(CC)c14)C3)C2 [Example 301, N-ethyl-5-(7-(8-ethyl-7-fluoro-3-hydroxynaphthalen-1-yl)-2-(((2R,7aS)-2-fluorotetrahydro-1H-pyrrolizin-7a(5H)-yl)methoxy)-5,6,7,8-tetrahydropyrido[3,4-d]pyrimidin-4-yl)-4,5,6,7,8,9-hexahydropyrazolo[1,5-a][1,4]diazocine-2-carboxamide]",102,34,54,85,–
85,9490,26.3,91,93,9,93,< 2,< 2,20,3,96,89,6,167,49,"CCc1c(F)ccc2cc(O)cc(N3CCc4c(nc(OC[C@@]56CCCN5C[C@H](F)C6)nc4N4CCCn5nc(C(=O)N6CC7CCC(C7)C6)cc5C4)C3)c12 [Example 302, 3-azabicyclo[3.2.1]octan-3-yl(5-(7-(8-ethyl-7-fluoro-3-hydroxynaphthalen-1-yl)-2-(((2R,7aS)-2-fluorohexahydro-1H-pyrrolizin-7a-yl)methoxy)-5,6,7,8-tetrahydropyrido[3,4-d]pyrimidin-4-yl)-5,6,7,8-tetrahydro-4H-pyrazolo[1,5-a][1,4]diazepin-2-yl)methanone]",92,33,66,66,inhibition at 0.1 µM [8]: 91%; inhibition at 0.1 µM [12]: 70%; IC50 [16]: 27 nM
